According to patent US9234025B2, “Extracellular allosteric inhibitor binding domain from a tyrosine kinase receptor” (SANOFI, priority 2009, dated 2016):

Legend:
HUVEC = HUVEC chemotactic migration; format: cell-based, human; details: FGFR1-driven
Experimental: Confluent HUVEC cells are harvested and resuspended in RPMI 1640 (Invitrogen, 32404-014) without FCS, 2 mM glutamine, MEM non-essential amino-acid 1× (Gibco, 11140-035), MEM sodium pyruvate 1× (Gibco, 11360-039) at 0.8 10^6 cells/ml. 250 μl of cell solution is distributed with 4×SSR in the upper chamber of 24-wells BD Biocoat Angiogenesis System for endothelial cell migration (BD Biocoat, 354144) and 750 μl of medium in the lower chamber with FGF2 (R&D, 234-FSE-025), FGF4 (R&D, 235-F4-025) or FGF-19 (in house produced) at 67 ng/ml. Plates are incubated 22 h at 37° C. in a CO2 chamber. Then, plate insert is removed, and placed in a new 24-wells plate (Falcon, 353504) that contains 500 μL of calcein (Molecular probes, C-3100) for 90 min. Then migrated cells are fluorescent and migration is measured by a […] with downstairs reading following 485 nm excitation and 535 nm emission.

FGF2 = FGF2 (Homo sapiens, UniProt P09038); assay: FGF2 dimerization; format: biochemical
Sequence of FGF2 (P09038 134-288, species assumed): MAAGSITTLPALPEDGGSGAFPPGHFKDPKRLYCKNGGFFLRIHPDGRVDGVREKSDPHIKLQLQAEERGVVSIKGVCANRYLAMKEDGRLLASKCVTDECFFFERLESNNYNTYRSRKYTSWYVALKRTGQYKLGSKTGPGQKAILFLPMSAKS

FGFR1 (PAE-FGFR1) = molecular target: T1, FGFR1 (PAE-FGFR1) (Homo sapiens, UniProt P11362); assay: I125-FGF2 binding assay on PAE-FGFR1 cells; details: porcine aortic endothelial cells overexpressing FGFR1; SSR even at high μM concentrations
T1 construct: or the expression of the entire intact receptor in its native environment; expressed in transfected cells; host or cells: porcine aortic endothelial cells (PAE)
T1 sequence (P11362 22-822): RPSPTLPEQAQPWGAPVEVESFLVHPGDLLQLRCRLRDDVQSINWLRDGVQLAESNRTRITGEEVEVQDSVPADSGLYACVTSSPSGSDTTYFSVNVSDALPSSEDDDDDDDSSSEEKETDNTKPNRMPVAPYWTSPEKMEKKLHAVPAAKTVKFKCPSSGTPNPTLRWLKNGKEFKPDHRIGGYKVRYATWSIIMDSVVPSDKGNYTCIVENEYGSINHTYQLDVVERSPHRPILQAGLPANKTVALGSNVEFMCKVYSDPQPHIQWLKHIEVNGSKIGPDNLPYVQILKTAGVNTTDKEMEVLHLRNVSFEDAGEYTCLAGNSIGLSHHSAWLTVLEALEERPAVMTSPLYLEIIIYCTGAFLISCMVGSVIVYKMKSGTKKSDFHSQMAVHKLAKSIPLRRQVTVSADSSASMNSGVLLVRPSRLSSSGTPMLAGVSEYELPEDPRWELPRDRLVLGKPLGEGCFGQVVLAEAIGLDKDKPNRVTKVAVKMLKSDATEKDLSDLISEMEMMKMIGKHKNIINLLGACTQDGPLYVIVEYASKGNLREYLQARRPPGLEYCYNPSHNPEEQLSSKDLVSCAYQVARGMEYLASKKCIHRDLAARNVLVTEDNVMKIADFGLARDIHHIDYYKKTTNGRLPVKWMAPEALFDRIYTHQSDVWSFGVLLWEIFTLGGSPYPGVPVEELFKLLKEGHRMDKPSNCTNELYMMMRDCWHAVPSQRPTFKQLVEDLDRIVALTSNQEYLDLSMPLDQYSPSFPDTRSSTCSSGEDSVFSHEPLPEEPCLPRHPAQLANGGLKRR

FGFR2^WT = molecular target: T2, FGFR2^WT (Homo sapiens, UniProt P21802); assay: FGF2-induced ERK1/2 phosphorylation in HEK293 cells, FGFR2 WT; format: cell-based; details: stable HEK293 FGFR2^WT cells; FGF2 0.5 ng/ml 5 min; average±sem, three experiments; read-out: IC50 value, inhibition of FGF2 induced ERK1/2 phosphorylation
T2 construct: expressed in transfected cells
T2 sequence (P21802 22-821): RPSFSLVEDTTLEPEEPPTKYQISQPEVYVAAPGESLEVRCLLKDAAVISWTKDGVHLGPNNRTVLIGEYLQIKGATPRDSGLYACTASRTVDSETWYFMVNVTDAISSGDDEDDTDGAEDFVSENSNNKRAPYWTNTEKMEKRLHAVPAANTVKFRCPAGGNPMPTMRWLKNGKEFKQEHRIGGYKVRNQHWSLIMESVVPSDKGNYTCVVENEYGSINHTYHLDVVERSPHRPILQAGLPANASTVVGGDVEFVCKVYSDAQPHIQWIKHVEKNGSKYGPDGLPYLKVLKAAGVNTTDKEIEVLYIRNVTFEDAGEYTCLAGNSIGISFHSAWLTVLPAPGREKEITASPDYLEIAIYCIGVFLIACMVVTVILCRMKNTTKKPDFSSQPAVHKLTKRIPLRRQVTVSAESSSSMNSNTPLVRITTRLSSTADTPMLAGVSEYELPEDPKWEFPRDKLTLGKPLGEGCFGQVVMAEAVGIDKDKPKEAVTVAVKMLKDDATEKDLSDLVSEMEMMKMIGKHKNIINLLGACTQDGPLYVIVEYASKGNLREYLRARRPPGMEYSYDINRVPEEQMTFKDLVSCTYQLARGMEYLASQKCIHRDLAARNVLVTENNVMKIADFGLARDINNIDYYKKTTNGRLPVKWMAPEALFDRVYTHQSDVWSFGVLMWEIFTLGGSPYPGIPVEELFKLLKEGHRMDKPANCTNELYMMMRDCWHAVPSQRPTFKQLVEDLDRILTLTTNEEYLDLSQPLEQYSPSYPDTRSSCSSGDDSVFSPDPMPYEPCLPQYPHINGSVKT
Experimental: (§1) HEK293 cells were either transiently of stably transfected (using FuGENE 6, Roche) with hFGFR2IIIca or hFGFR2IIIca-Y328D cloned in pcDNA3 (Invitrogen). Stably transfected cells were grown in G418 (400 μg/ml) containing medium. Before stimulation, the cells were starved overnight in DMEM (0% serum), and pre-incubated with […] at the required concentration. The cells were subsequently stimulated with FGF2 (concentration between 0.5-10 ng/ml) for 5 min at 37° C. with or without SSR or SU5402 at 1 μM. After washing with ice-cold phosphate-buffered saline containing phosphatase inhibitors (Roche), cells were lysed in RIPA buffer (Tris 30 mM HCl pH 7.5, 150 mM NaCl, 1 mM EDTA, 1% triton-X, 0.5% w/v deoxycholate, containing phophatase and protease inhibitors as described by the manufacturer (Roche)). Cell lysates were centrifuged at 12,000 g for 10 min, and the supernatants were collected. Proteins were separated on Novex polyacrylamide gels (Invitrogen, Carlsbad, Calif.) and subsequently transferred onto Hybond ECL nitrocellulose membranes (Amersham Pharmacia). Following incubation with 5% non-fat milk powder in PBS, the membranes were incubated overnight at 4° C. with the following antibodies: phospho-ERK1/2 (CST:9101), phospho-FRS2 (CST:3861), phospho-PLCγ (CST:2821) and FGFR2 (F0300, Sigma).

FGFR4 [1] = molecular target: T3, FGFR4 (Homo sapiens, UniProt P22455); assay: FGF2 binding to FGFR4 in intact cells; details: receptor expressed in intact cells
T3 construct: expressed in transfected cells; host or cells: murine pre-B 300-19 cells
T3 sequence (P22455 22-802): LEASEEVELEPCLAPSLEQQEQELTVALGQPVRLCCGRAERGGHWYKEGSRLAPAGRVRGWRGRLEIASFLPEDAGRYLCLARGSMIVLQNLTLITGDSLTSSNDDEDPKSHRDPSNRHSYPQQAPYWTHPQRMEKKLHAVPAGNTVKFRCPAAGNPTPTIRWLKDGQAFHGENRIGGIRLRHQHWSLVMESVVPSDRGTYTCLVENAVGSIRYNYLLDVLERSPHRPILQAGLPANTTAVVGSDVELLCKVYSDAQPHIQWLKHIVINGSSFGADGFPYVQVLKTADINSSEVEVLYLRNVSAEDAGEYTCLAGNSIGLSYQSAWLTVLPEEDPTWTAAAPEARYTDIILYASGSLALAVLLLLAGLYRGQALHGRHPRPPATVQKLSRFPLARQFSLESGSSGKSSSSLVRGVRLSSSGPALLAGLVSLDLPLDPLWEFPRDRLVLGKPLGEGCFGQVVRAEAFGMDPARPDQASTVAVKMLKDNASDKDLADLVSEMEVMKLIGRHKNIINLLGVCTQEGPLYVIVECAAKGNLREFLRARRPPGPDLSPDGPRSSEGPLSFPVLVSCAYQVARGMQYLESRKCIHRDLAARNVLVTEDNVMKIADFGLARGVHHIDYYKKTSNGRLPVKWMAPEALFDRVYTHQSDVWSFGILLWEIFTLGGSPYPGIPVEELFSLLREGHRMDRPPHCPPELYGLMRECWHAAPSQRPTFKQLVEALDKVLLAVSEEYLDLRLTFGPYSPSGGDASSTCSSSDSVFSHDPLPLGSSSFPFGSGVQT

FGFR2^∂23-Y328D [2] = assay: FGF2-induced ERK1/2 phosphorylation in HEK293 cells, FGFR2 Y328D; format: cell-based, human; details: Erk1/2 western blot densitometry IC50
Experimental: as §1

FGFR2 = molecular target: T4, FGFR2 (Homo sapiens, UniProt P21802); assay: FGFR2 multimerization; format: biochemical
T4 construct: or the expression of the entire intact receptor in its native environment
T4 sequence (P21802 22-821): as the sequence (P21802 22-821) above

FGFR4 [3] = molecular target: T3, FGFR4; assay: AlexaFluor488-FGF2 binding on FGFR4-transfected 300-19 cells (flow cytometry); details: SSR 300 nM; FGF2 10 ng/ml; murine pre-B 300-19 cells
Experimental: FGF2 was labeled with Alexa Fluor 488 C5-maleimide (Invitrogen, A10254) following purchaser recommendations.
This AF488-FGF2 was used at 10 ng/ml in binding experiments on murine pre-B 300-19 cells transfected with FGFR1 or FGFR4 constructs in pEF6-V5/His Topo plasmids (Invitrogen). SSR (300 nM final) was pre-incubating 20 min with cells in RPMI 1640 (Invitrogen, 32404-014) with 10% FCS (Hyclone, SH30070.03), 2 mM glutamine, MEM non-essential amino-acid 1× (Gibco, 11140-035), MEM sodium pyruvate 1× (Gibco, 11360-039) and […] monothioglycerol (Sigma, M6145) at 4° C. under 150 rpm agitation. Then, FGF2 (10 ng/ml final) is added for 30 min and binding is measured using a FACS Calibur flow cytometer (Beckton Dickinson). Fluorescence median for each condition is also analysed.

FGFR2^∂23-Y328D [4] = molecular target: FGFR2^∂23-Y328D (Homo sapiens, UniProt P21802, Y328D); assay: ITC, FGFR2 Y328D mutant; format: binding; parameters: FGFR2^∂23 (consisting of domain D2 and 3); made in house
Sequence of FGFR2^∂23-Y328D (Homo sapiens, UniProt P21802, Y328D) (P21802 148-366 Y328D limits assumed): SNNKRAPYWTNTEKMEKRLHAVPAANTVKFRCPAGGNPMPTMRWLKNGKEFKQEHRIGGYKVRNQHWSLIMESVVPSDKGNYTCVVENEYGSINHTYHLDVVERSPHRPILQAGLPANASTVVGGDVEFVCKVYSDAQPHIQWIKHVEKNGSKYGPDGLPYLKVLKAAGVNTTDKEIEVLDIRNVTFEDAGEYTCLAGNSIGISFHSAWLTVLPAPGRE
Experimental: All calorimetric experiments were performed at 30° C. with a VP-ITC titration calorimeter (MicroCal Inc., Northampton, Mass.) as previously described^45. Titrations involved the addition of 10 μL aliquots of 1.25 mM SSR via a rotating stirrer-syringe to the solution cell containing 1.407 mL of the 10-20 μM interacting protein (i.e. FGFR2^∂123, FGFR2^∂23 and its described mutants and subdomains, FGFR3^∂123, FGF1, FGF2 and Follistatin (as negative control) at 4 min intervals. A constant stirring speed of 300 rpm was maintained and data were fitted to the standard noninteracting one site model supplied by MicroCal, with n fixed as 1.0. All measurements were performed in 10 mM HEPES pH7.2, 150 mM NaCl, and proteins were purified as previously described (Pellegrini et al., 2000). Mutagenesis was performed using the ‘site directed mutagenesis kit’ (Stratagene).
We next explored whether SSR bound to amino acid residues that form part of the orthosteric site in D3 or to an alternative allosteric site. Initially, we used the molecular docking algorithms of the software packages MOLEGRO, Autodock and YASARA and available crystallographic data. […] We also analyzed the FTIR spectrum of the aforementioned mutated FGFR2 fragments.

COc1c(C)c(C(=O)c2ccc(N)c(C(=O)[O-])c2)n2ccccc12.[Na+] [SSR]
FGF2-induced HUVEC chemotactic migration (HUVEC): reduction of FGF2-induced HUVEC chemotactic migration
FGF2 dimerization (FGF2): not able to inhibit
inhibition of I^125-FGF2 binding to its receptor (FGFR1 (PAE-FGFR1)): unable to inhibit I^125-FGF2 binding
IC50 (FGFR2^WT): 28 ± 12 nM
binding of FGF2 to FGFR4 (FGFR4 [1]): failed to antagonize
sensitivity to SSR inhibition, FGFR2-Y328D compared to FGFR2-WT (FGFR2^∂23-Y328D [2]): about 5 times less sensitive
FGFR2 dimerization (multimerization) (FGFR2): not able to inhibit
competition with AlexaFluor488-labelled FGF2 binding to FGFR4 (FGFR4 [3]): not able to compete this binding
binding to FGFR2^∂23-Y328D (FGFR2^∂23-Y328D [4]): failed to bind
